Data published in US20250243219A1, “MACROCYCLIC COMPOUNDS AND USES THEREOF” (Cypralis Limited, priority 2022, published 2025).

Key:
[1] = Blood-brain barrier penetration, intravenous dosing; format: in vivo, rodents (mice or rats); conditions: 3 mg/kg intravenous; for Brain concentration / Plasma concentration: at 30 min.
Experimental: Test compounds were administered to rodents (mice or rats) either orally, subcutaneously or intravenously. To determine blood or plasma concentrations blood samples were taken at different time points and analysed for the concentration of test compound by LC/MS. Brain concentrations were measured by sacrificing animals and LC/MS analysis of brain homogenate.
The results for Compounds (2), (19), (6) and (27) are summarised in Table 6 showing concentrations of the Compounds in blood plasma and the brain.

[2] = tested on: permeabilised HepG2 cells; assay: Calcium retention capacity (CRC) assay in permeabilised HepG2 cells (MPTP opening); format: cell-based, human; parameters: CRC [10 μM]: unit not given here; conditions: compound at 10 μM; for CRC [10 μM]: digitonin permeabilised HepG2 cells; for CRC [10 μM] (ratio vs CsA): normalised to cyclosporin A, value in brackets
Summary of the method: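 Digitonin-permeabilised HepG2 cells received trains of calcium pulses (typically 5 μM) monitored with Calcium Green-5N until buffering failed, marking permeability transition. Runs with and without compound; calcium retained at 10 μM compound expressed as ratio versus cyclosporin A positive control.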

[3] = target: cyclophilin A (Homo sapiens (Human), UniProt P62937); assay: Functional peptidyl prolyl isomerase (PPIase) spectrophotometric assay, cyclophilin A; format: biochemical; conditions: first value of CypA/D cell
Sequence of cyclophilin A (P62937 whole entry, species assumed): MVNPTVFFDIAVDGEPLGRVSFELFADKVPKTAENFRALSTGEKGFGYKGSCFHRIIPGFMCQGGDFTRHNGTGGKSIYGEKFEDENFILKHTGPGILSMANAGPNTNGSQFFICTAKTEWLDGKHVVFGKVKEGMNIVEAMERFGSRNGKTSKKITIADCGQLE
Summary of the method: (§1)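 Cuvette-based UV/Vis assay of PPIase-catalysed cis-to-trans isomerisation of a peptide substrate. First-order rate constants fitted to absorbance, background rate subtracted. Ki derived from rate constant versus inhibitor concentration, typically 6-point curves in duplicate.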

[4] = target: cyclophilin D (Homo sapiens (Human), UniProt P30405); assay: Functional peptidyl prolyl isomerase (PPIase) spectrophotometric assay, cyclophilin D; format: biochemical; conditions: second value of CypA/D cell; read-out: Ki CypD
Sequence of cyclophilin D (P30405 30-207, species assumed): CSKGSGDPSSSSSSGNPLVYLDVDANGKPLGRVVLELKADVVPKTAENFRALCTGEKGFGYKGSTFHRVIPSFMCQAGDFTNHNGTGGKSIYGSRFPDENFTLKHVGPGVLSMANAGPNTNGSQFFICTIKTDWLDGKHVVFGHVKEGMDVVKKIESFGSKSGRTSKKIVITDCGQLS
Summary of the method: as §1

[5] = tested on: SH-SY5Y cells; assay: Thapsigargin treated cell death assay in SH-SY5Y cells; format: cell-based, human; conditions: compound at 10 μM; positive = protection from cell death, negative = compound toxicity
Summary of the method: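 SH-SY5Y neuroblastoma cells given compound (typically 1, 3 and 10 μM, triplicate) 30 min before thapsigargin, with cyclosporin A (3 and 10 μM) as positive control. Cell death read kinetically over 24 h by CellTox Green DNA-binding fluorescence; values are % recovery at 10 μM, usually at 8 h, positive meaning protection.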

SMILES | Blood-brain barrier passage [1] | Brain concentration [1] [ng/mL] | Plasma concentration [1] [ng/mL] | CRC [10 μM] [2] | CRC [10 μM] (ratio vs CsA) [2] | Ki [3] [nM] | Ki [4] [nM] | SYSY [10 μM] % recovery [5] [%]
C[C@@H]1NC(=O)C(CCc2ccccc2)OC(=O)C(C)(C)/C=C/c2ccc3ccc(nc3c2)N(C)NC(=O)[C@@H]2CCCN(N2)C1=O (single isomer, unassigned) [(27)] | passed the blood-brain barrier | 285 | 1382 | – | – | – | – | –
CC(C)[C@@H]1OC(=O)C2(/C=C/c3ccc4ccc(nc4c3)N(C)N(C)C(=O)[C@@H]3CCCN(N3)C(=O)[C@H](C)NC1=O)COCOC2 [(19)] | passed the blood-brain barrier | 116 | 74 | 30 | 0.77 | 23 | 150 | –
CC(C)[C@@H]1OC(=O)C(C)(C)C/C=C/c2ccc3ccc(nc3c2)N(C)NC(=O)[C@@H]2CCCN(N2)C(=O)[C@H](C)NC1=O [Compound (6)] | passed the blood-brain barrier | 197 | 1216 | – | – | > 10000 | > 10 | –
CC(C)[C@@H]1OC(=O)C(C)(C)/C=C/c2ccc3ccc(nc3c2)N(C)NC(=O)[C@@H]2CCCN(N2)C(=O)[C@H](CCC(=O)N2CCC(O)CC2)NC1=O [Compound (72)] | – | – | – | 20 | 0.80 | 14 | 21 | 43
CC(C)[C@@H]1OC(=O)C(C)(C)/C=C/c2ccc3ccc(nc3c2)N(C)NC(=O)[C@@H]2CCCN(N2)C(=O)[C@H](CC2CCN(C)CC2)NC1=O [Compound (73)] | – | – | – | 15 | 0.75 | 11 | 42 | 43
CC(C)[C@@H]1OC(=O)C(C)(C)/C=C/c2ccc3ccc(nc3c2)N(C)NC(=O)[C@@H]2CCCN(N2)C(=O)[C@H](Cc2ccccc2)NC1=O [Compound (76)] | – | – | – | 33.9 | 0.97 | 5.6 | 6.3 | 27.6
CC(C)[C@@H]1OC(=O)C(C)(C)/C=C/c2ccc3ccc(nc3c2)N(C)NC(=O)[C@@H]2CCCN(N2)C(=O)[C@H](Cc2ccc(CN(C)C)cc2)NC1=O [Compound (79)] | – | – | – | 28.33 | 0.85 | 8.9 | 28 | 1.8
CC(C)[C@@H]1OC(=O)C(C)(C)/C=C/c2ccc3ccc(nc3c2)N(C)NC(=O)[C@@H]2CCCN(N2)C(=O)[C@H](C2CC2)NC1=O [Compound (80)] | – | – | – | 25 | 1.00 | 4 | 22 | 29.2
C[C@@H]1NC(=O)[C@H](Cc2ccccc2Cl)OC(=O)C(C)(C)/C=C/c2ccc3ccc(nc3c2)N(C)NC(=O)[C@@H]2CCCN(N2)C1=O [Compound (81)] | – | – | – | 20 | 0.67 | 9.7 | 9.4 | 44
